According to US12565494B2, “Inhibitors of human respiratory syncytial virus and metapneumovirus” (priority 2022, dated 2026):
Like-named read-outs stand apart in the source and are kept apart here.

Columns and labels:
[1] = test system: hMPV-GFP virus; experiment: microbe, parasite or virus in culture; type: cell-based, Human Metapneumovirus; conditions: VERO cells, hMPV-GFP MOI=1.25, 48 hrs, GFP-expressing cells counted
Summary of the method: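 VERO cells infected with GFP-expressing hMPV at MOI 1.25 and exposed to compound in 10-point 3-fold dilutions (typical final 40,300–2 nM) for 48 h at 37 °C. GFP-positive cells counted by imaging; same-well CellTiter-Glo for cytotoxicity. IC50 and CC50 from 4-parameter logistic fits.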

[2] = test system: RSV-A2-GFP virus; experiment: microbe, parasite or virus in culture; type: cell-based, Human Respiratory Syncytial Virus; conditions: Calu-1 cells, RSV-A2-GFP MOI=1.2, 96 hrs, GFP-expressing cells counted
Summary of the method: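 Assay-ready frozen Calu-1 cells (20,000 cells/mL) were infected with RSV-A2-GFP at MOI 1.2 in DMEM with 2% FBS and exposed to a 10-point 3-fold compound dilution for 96 h at 37 °C. GFP-positive cells were counted by imaging, with same-well CellTiter-Glo for cytotoxicity. IC50 and CC50 came from 4-parameter logistic fits.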

[3] = Vero, 48 h, read-out: RSV EC50, Table II Summary of Activities for hMPV
[4] = human respiratory syncytial virus, Calu-1, 96 h, read-out: RSV EC50, Table I Summary of Activities for RSV
[5] = Table II Summary of Activities for hMPV, read-out: RSV EC50
[6] = Table I Summary of Activities for RSV, read-out: RSV EC50

SMILES	EC50 [1, 3] [µM]	EC50 [2, 4] [µM]	EC50 [1, 5] [µM]	EC50 [2, 6] [µM]
CCn1nc(-c2cscn2)cc1C(=O)N1C[C@@H]2[C@H](C1)[C@H]2Oc1cc(C(C)(C)N)cc(-c2ccc(F)cc2)n1 [Example 19, ((1R,5S,6s)-6-((4-(2-aminopropan-2-yl)-6-(4-fluorophenyl)pyridin-2-yl)oxy)-3-azabicyclo[3.1.0]hexan-3-yl)(1-ethyl-3-(thiazol-4-yl)-1H-pyrazol-5-yl)methanone]	0.01 to 0.1	< 0.01		
Cn1nc(-c2ncsc2F)cc1C(=O)N1C[C@@H]2[C@H](C1)[C@H]2Oc1cc(C(C)(C)N)cc(-c2ccc(F)cc2)n1 [Example 20, ((1R,5S,6s)-6-((4-(2-aminopropan-2-yl)-6-(4-fluorophenyl)pyridin-2-yl)oxy)-3-azabicyclo[3.1.0]hexan-3-yl)(3-(5-fluorothiazol-4-yl)-1-methyl-1H-pyrazol-5-yl)methanone]	0.01 to 0.1	< 0.01		
Cn1nc(-c2ccon2)cc1C(=O)N1C[C@@H]2[C@H](C1)[C@H]2Oc1cc(C(C)(C)N)cc(-c2ccc(F)cc2)n1 [Example 21, ((1R,5S,6s)-6-((4-(2-aminopropan-2-yl)-6-(4-fluorophenyl)pyridin-2-yl)oxy)-3-azabicyclo[3.1.0]hexan-3-yl)(3-(isoxazol-3-yl)-1-methyl-1H-pyrazol-5-yl)methanone]	> 0.1	< 0.01		
Cc1cnc(-c2cc(C(=O)N3C[C@@H]4[C@H](C3)[C@H]4Oc3cc(C(C)(C)N)cc(-c4ccc(F)cc4)n3)n(C)n2)o1 [Example 22, ((1R,5S,6s)-6-((4-(2-aminopropan-2-yl)-6-(4-fluorophenyl)pyridin-2-yl)oxy)-3-azabicyclo[3.1.0]hexan-3-yl)(1-methyl-3-(5-methyloxazol-2-yl)-1H-pyrazol-5-yl)methanone]			0.01 to 0.1	< 0.01
Cn1nc(-c2nccs2)cc1C(=O)N1C[C@@H]2[C@H](C1)[C@H]2Oc1cc(C(C)(C)N)cc(-c2ccc(F)cc2)n1 [Example 23, ((1R,5S,6s)-6-((4-(2-aminopropan-2-yl)-6-(4-fluorophenyl)pyridin-2-yl)oxy)-3-azabicyclo[3.1.0]hexan-3-yl)(1-methyl-3-(thiazol-2-yl)-1H-pyrazol-5-yl)methanone]			> 0.1	< 0.01
Cc1nc(-c2cc(C(=O)N3C[C@@H]4[C@H](C3)[C@H]4Oc3cc(C(C)(C)N)cc(-c4ccc(F)cc4)n3)n(C)n2)cs1 [Example 24, ((1R,5S,6s)-6-((4-(2-aminopropan-2-yl)-6-(4-fluorophenyl)pyridin-2-yl)oxy)-3-azabicyclo[3.1.0]hexan-3-yl)(1-methyl-3-(2-methylthiazol-4-yl)-1H-pyrazol-5-yl)methanone]			> 0.1	< 0.01
Cn1nc(-c2cscn2)c(F)c1C(=O)N1C[C@@H]2[C@H](C1)[C@H]2Oc1cc(C(C)(C)N)cc(-c2ccc(F)cc2)n1 [Example 25, ((1R,5S,6s)-6-((4-(2-aminopropan-2-yl)-6-(4-fluorophenyl)pyridin-2-yl)oxy)-3-azabicyclo[3.1.0]hexan-3-yl)(4-fluoro-1-methyl-3-(thiazol-4-yl)-1H-pyrazol-5-yl)methanone]	0.01 to 0.1	< 0.01		
Cn1nc(-c2ncco2)c(F)c1C(=O)N1C[C@@H]2[C@H](C1)[C@H]2Oc1cc(C(C)(C)N)cc(-c2ccc(F)cc2)n1 [Example 26, ((1R,5S,6s)-6-((4-(2-aminopropan-2-yl)-6-(4-fluorophenyl)pyridin-2-yl)oxy)-3-azabicyclo[3.1.0]hexan-3-yl)(4-fluoro-1-methyl-3-(oxazol-2-yl)-1H-pyrazol-5-yl)methanone]			> 0.1	< 0.01
CC(C)(N)c1cc(O[C@H]2[C@@H]3CN(C(=O)c4nc(-c5cscn5)ns4)C[C@@H]32)nc(-c2ccc(F)cc2)c1 [Example 27, ((1R,5S,6s)-6-((4-(2-aminopropan-2-yl)-6-(4-fluorophenyl)pyridin-2-yl)oxy)-3-azabicyclo[3.1.0]hexan-3-yl)(3-(thiazol-4-yl)-1,2,4-thiadiazol-5-yl)methanone]			> 0.1	0.01 to 0.1
Cc1nn(-c2cscn2)cc1C(=O)N1C[C@@H]2[C@H](C1)[C@H]2Oc1cc(C(C)(C)N)cc(-c2ccc(F)cc2)n1 [Example 28, ((1R,5S,6s)-6-((4-(2-aminopropan-2-yl)-6-(4-fluorophenyl)pyridin-2-yl)oxy)-3-azabicyclo[3.1.0]hexan-3-yl)(3-methyl-1-(thiazol-4-yl)-1H-pyrazol-4-yl)methanone]			> 0.1	< 0.01
CC(C)(N)c1cc(O[C@H]2[C@@H]3CN(C(=O)c4cc(-c5cscn5)ns4)C[C@@H]32)nc(-c2ccc(F)cc2)c1 [Example 29, ((1R,5S,6s)-6-((4-(2-aminopropan-2-yl)-6-(4-fluorophenyl)pyridin-2-yl)oxy)-3-azabicyclo[3.1.0]hexan-3-yl)(3-(thiazol-4-yl)isothiazol-5-yl)methanone]			> 0.1	< 0.01
Cn1nc(-c2cscn2)nc1C(=O)N1C[C@@H]2[C@H](C1)[C@H]2Oc1cc(C(C)(C)N)cc(-c2ccc(F)cc2)n1 [Example 30, ((1R,5S,6s)-6-((4-(2-aminopropan-2-yl)-6-(4-fluorophenyl)pyridin-2-yl)oxy)-3-azabicyclo[3.1.0]hexan-3-yl)(1-methyl-3-(thiazol-4-yl)-1H-1,2,4-triazol-5-yl)methanone]			> 0.1	< 0.01
Cc1nc(-c2ncco2)sc1C(=O)N1C[C@@H]2[C@H](C1)[C@H]2Oc1cc(C(C)(C)N)cc(-c2ccc(F)cc2F)n1 [Example 31, ((1R,5S,6s)-6-((4-(2-aminopropan-2-yl)-6-(2,4-difluorophenyl)pyridin-2-yl)oxy)-3-azabicyclo[3.1.0]hexan-3-yl)(4-methyl-2-(oxazol-2-yl)thiazol-5-yl)]	0.01 to 0.1	< 0.01		
Cc1nc(-c2ccon2)sc1C(=O)N1C[C@@H]2[C@H](C1)[C@H]2Oc1cc(C(C)(C)N)cc(-c2ccc(F)cc2F)n1 [Example 32, ((1R,5S,6s)-6-((4-(2-aminopropan-2-yl)-6-(2,4-difluorophenyl)pyridin-2-yl)oxy)-3-azabicyclo[3.1.0]hexan-3-yl)(2-(isoxazol-3-yl)-4-methylthiazol-5-yl)methanone]			> 0.1	< 0.01
Cc1nc(-c2cscn2)sc1C(=O)N1C[C@@H]2[C@H](C1)[C@H]2Oc1cc(C(C)(C)N)cc(-c2ccc(F)cc2F)n1 [Example 33, ((1R,5S,6s)-6-((4-(2-aminopropan-2-yl)-6-(2,4-difluorophenyl)pyridin-2-yl)oxy)-3-azabicyclo[3.1.0]hexan-3-yl)(4-methyl-[2,4′-bithiazol]-5-yl)methanone]			> 0.1	< 0.01
CC(C)(N)c1cc(O[C@H]2[C@@H]3CN(C(=O)c4sc(-c5cscn5)nc4C4CC4)C[C@@H]32)nc(-c2ccc(F)cc2F)c1 [Example 34, ((1R,5S,6s)-6-((4-(2-aminopropan-2-yl)-6-(2,4-difluorophenyl)pyridin-2-yl)oxy)-3-azabicyclo[3.1.0]hexan-3-yl)(4-cyclopropyl-[2,4′-bithiazol]-5-yl)methanone]			0.01 to 0.1	< 0.01
